Data taken from article PMC11768251, “Τhiazolidine-4-One Derivatives with Variable Modes of Inhibitory Action Against DPP4, a Drug Target with Multiple Activities and Established Role in Diabetes Mellitus Type II” (Pharmaceuticals, 2025).
Where two headings read alike, the source gives them in different places.

Legend:
[1] = biological target: T1, DPP4 (Homo sapiens, UniProt P27487); assay: In vitro DPP4 inhibition assay, fluorometric, H-Gly-Pro-amidomethyl coumarin substrate; settings: for logIC50: Figure 4, competitive inhibitors
T1 sequence (P27487 whole entry): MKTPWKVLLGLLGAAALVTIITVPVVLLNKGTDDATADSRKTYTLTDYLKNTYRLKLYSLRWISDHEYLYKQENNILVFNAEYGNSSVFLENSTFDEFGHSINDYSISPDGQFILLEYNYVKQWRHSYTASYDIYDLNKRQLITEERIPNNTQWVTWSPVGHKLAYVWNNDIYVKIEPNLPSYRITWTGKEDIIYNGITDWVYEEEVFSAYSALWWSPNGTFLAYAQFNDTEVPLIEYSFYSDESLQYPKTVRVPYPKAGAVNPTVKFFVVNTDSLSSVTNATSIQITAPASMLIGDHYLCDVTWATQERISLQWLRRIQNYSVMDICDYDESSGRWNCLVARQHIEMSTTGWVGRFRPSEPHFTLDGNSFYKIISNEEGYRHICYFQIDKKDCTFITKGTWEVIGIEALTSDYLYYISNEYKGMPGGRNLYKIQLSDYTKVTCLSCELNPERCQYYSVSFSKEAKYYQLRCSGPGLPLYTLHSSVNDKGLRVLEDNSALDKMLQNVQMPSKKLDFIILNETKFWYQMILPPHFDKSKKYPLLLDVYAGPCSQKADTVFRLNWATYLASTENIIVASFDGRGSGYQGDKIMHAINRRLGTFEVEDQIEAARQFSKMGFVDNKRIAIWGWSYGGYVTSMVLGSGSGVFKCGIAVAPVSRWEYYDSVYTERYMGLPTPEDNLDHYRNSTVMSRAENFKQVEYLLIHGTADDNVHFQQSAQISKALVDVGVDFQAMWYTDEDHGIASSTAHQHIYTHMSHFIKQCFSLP
Method: The compounds were screened for their inhibitory activity against DPP4 by a fluorometric assay, measuring the hydrolysis rate of the substrate Gly-Pro-amidomethyl coumarin in the absence and presence of the inhibitor. […] DPP-4 activity was assessed by measuring the hydrolysis rate of the substrate H-Gly-Pro-amidomethyl coumarin. The resulting fluorescent product, 7-Amino-4-Methyl Coumarin (AMC), was monitored with a Tecan Pro2000 microplate fluorescence reader (Tecan Ltd, Zurich, Switzerland) at an excitation wavelength of 360 nm and an emission wavelength of 460 nm, with measurements taken every 60 s for 30 min. The inhibitors, dissolved in DMSO, were added to the reaction buffer (20 mM Tris-HCl, pH 8, 100 mM NaCl, and 1 mM EDTA) at 10 µL per reaction, along with 0.17 µg/mL of enzyme, and incubated for 10 min. After incubation, 50 µL of the appropriate substrate concentration was added, bringing the total reaction volume to 100 µL. The inhibition (%) was calculated as ((Fc − Fi)/Fc) × 100, where Fc is the fluorescence value of the control (no inhibitor-total activity) and Fi is the fluorescence value in the presence of the inhibitor. […] The volume of 10 μL DMSO was added to the total activity control instead of the inhibitor. A blank containing all other components except for the enzyme was abstracted in all cases. Each determination was performed in triplicate.

[2] = biological target: T1, DPP4; assay: Inhibition kinetic analysis of DPP4 (Lineweaver–Burk plot); assay type: biochemical; settings: for Κm of the enzyme in the presence of the compound: without compound 49.7 ± 3.8; for Inhibition Mode: from Lineweaver–Burk plot, substrate 17–80 μM
Method: To further investigate the mode of inhibition, Lineweaver–Burk curves were prepared for some of the compounds.
The concentration range of the substrate (H-Gly-Pro-AMC) was 17–80 μM, and the final concentration of DPP-4 was 0.17 µg/mL. The maximum enzymatic reaction rate (Vmax) and Michaelis constant (Km) were calculated according to the Lineweaver–Burk plot.

[3] = cited from earlier work
[4] = read-out: % Inhibition, 50 μΜ Substrate
[5] = read-out: % Inhibition, 100 μΜ Substrate
[6] = compound concentration 15.000 μΜ
[7] = compound concentration 0.080 μΜ
[8] = compound concentration 0.100 μΜ

| SMILES | IC50 ([1]; IC50, DPP4, triplicate) | Inhibition Mode [2] | inhibition at 0.08 µM [1, 4] | inhibition at 0.08 µM [1, 5] | further results |
| --- | --- | --- | --- | --- | --- |
| O=C1CSC(c2ccc(F)cc2)N1c1nc2ccc(Cl)cc2s1 (stereo not shown) [c1] | > 20000 nM | – | – | – | inhibition at 10 µM [1, 4]: 33.5%; inhibition at 10 µM [1, 5]: 11.4% |
| O=C1CSC(c2ccc([N+](=O)[O-])cc2)N1c1nc2ccc(Cl)cc2s1 (stereo not shown) [c2] | 8600 ± 200 nM | competitive | – | – | Κm of the enzyme in the presence of the compound [2, 6]: 87.6 ± 4.8; inhibition at 10 µM [1, 4]: 66%; inhibition at 10 µM [1, 5]: 14.1% |
| O=C1CSC(c2ccc(Cl)cc2)N1c1nc2ccc(Cl)cc2s1 (stereo not shown) [c3] | 12500 ± 200 nM | – | – | – | logIC50 [1]: 4.097; inhibition at 10 µM [1, 4]: 41.6%; inhibition at 10 µM [1, 5]: 28% |
| COc1ccc(C2SCC(=O)N2c2nc3ccc(Cl)cc3s2)cc1 (stereo not shown) [c4] | 11500 ± 1500 nM | uncompetitive | – | – | Κm of the enzyme in the presence of the compound [2, 6]: 19.4 ± 9.3; inhibition at 10 µM [1, 4]: 48.5%; inhibition at 10 µM [1, 5]: 68.5% |
| O=C1CSC(c2c(Cl)cccc2Cl)N1c1nc2ccc(OC(F)(F)F)cc2s1 (stereo not shown) [h1] | 31 ± 3.8 nM | – | 79.8% | 12% | logIC50 [1]: 1.491 |
| O=C1CSC(c2c(F)cccc2Cl)N1c1nc2ccc(OC(F)(F)F)cc2s1 (stereo not shown) [h3, 3-(6-OCF3-benzo[d]thiazol-2-yl)-2-(2-F,6-Cl-phenyl) thiazolidin-4-one] | 12 ± 0.5 nM | competitive | 62% | 20% | Κm of the enzyme in the presence of the compound ([2]; compound concentration 0.010 μΜ): 103.1 ± 9.3; logIC50 [1]: 1.079 |
| O=C1CSC(c2cccc(Cl)c2Cl)N1c1nc2ccc(OC(F)(F)F)cc2s1 (stereo not shown) [h4] | 27 ± 0.5 nM | competitive | 84.4% | 12.1% | Κm of the enzyme in the presence of the compound [2, 7]: 98 ± 26.9; logIC50 [1]: 1.431 |
| O=C1CSC(c2ccc(Cl)cc2Cl)N1c1nc2ccc(OC(F)(F)F)cc2s1 (stereo not shown) [h5] | 23.7 ± 2 nM | – | 45% | 14% | – |
| O=C1CSC(c2ccc(F)cc2)N1c1nc2ccc(OC(F)(F)F)cc2s1 (stereo not shown) [h6] | > 100 nM | – | 46.8% | 0% | – |
| CC#CCn1c(N2CCC[C@@H](N)C2)nc2c1c(=O)n(Cc1nc(C)c3ccccc3n1)c(=O)n2C [linagliptin] | – | – | – | – | excreted unmodified in the feces [3]: 87% |
| N[C@@H](CC(=O)N1CCn2c(nnc2C(F)(F)F)C1)Cc1cc(F)c(F)cc1F [sitagliptin] | – | – | – | – | ends unmodified in the urine [3]: 79% |

Further lines, with some results ahead:

| IC50 ([1]; IC50, DPP4, triplicate) | Inhibition Mode [2] | inhibition at 0.08 µM [1, 4] | inhibition at 0.08 µM [1, 5] | SMILES | further results |
| --- | --- | --- | --- | --- | --- |
| 25.5 ± 3 nM | – | 67% | 55% | O=C1CSC(c2ccc([N+](=O)[O-])cc2)N1c1nc2ccc(OC(F)(F)F)cc2s1 (stereo not shown) [h7] | – |
| 90.6 ± 8.8 nM | mixed | 45% | 26% | O=C1CSC(c2ccc(Cl)cc2)N1c1nc2ccc(OC(F)(F)F)cc2s1 (stereo not shown) [h8] | Κm of the enzyme in the presence of the compound [2, 7]: 167.9 ± 15.8 |
| 72.3 ± 5.2 nM | mixed | 52.3% | 37.6% | COc1ccc(C2SCC(=O)N2c2nc3ccc(OC(F)(F)F)cc3s2)cc1 (stereo not shown) [h9] | – |
| > 100 nM | – | 38% | 0% | O=C1CSC(c2ccc(O)cc2)N1c1nc2ccc(OC(F)(F)F)cc2s1 (stereo not shown) [h10] | – |
| 71.5 ± 8.3 nM | uncompetitive | 52% | 69.7% | O=C1CSC(c2c(F)cccc2Cl)N1c1nc2ccc(C34CC5CC(CC(C5)C3)C4)cc2s1 (stereo not shown) [m2, 3-(6-Ad-benzo[d]thiazol-2-yl)-2-(2-F,6-Cl-phenyl) thiazolidin-4-one] | Κm of the enzyme in the presence of the compound ([2]; compound concentration 0.060 μΜ): 30.6 ± 2.7 |
| 137 ± 4.6 nM | non-competitive | 36.8% | 37.2% | Cc1cc(C23CC4CC(CC(C4)C2)C3)cc2sc(N3C(=O)CSC3c3c(Cl)cccc3Cl)nc12 (stereo not shown) [n1, 3-(4-CH3,6-Ad-benzo[d]thiazol-2-yl)-2-(2,6-di-Cl-phenyl) thiazolidin-4-one] | Κm of the enzyme in the presence of the compound [2, 8]: 49.8 ± 0.6 |
| 48.3 ± 5.2 nM | competitive | 66.3% | 0% | Cc1cc(C23CC4CC(CC(C4)C2)C3)cc2sc(N3C(=O)CSC3c3c(F)cccc3F)nc12 (stereo not shown) [n2] | Κm of the enzyme in the presence of the compound [2, 8]: 117.2 ± 1.5; logIC50 [1]: 1.681; IC50 ([1]; IC50 (as printed in Figure 4), printed in the picture of Figure 4 without unit): 48 nM |
